Target: T1, human TLR7 (Homo sapiens, UniProt Q9NYK1)
T1 construct: host or cells: HEK-Blue cells
T1 sequence (Q9NYK1 27-1049): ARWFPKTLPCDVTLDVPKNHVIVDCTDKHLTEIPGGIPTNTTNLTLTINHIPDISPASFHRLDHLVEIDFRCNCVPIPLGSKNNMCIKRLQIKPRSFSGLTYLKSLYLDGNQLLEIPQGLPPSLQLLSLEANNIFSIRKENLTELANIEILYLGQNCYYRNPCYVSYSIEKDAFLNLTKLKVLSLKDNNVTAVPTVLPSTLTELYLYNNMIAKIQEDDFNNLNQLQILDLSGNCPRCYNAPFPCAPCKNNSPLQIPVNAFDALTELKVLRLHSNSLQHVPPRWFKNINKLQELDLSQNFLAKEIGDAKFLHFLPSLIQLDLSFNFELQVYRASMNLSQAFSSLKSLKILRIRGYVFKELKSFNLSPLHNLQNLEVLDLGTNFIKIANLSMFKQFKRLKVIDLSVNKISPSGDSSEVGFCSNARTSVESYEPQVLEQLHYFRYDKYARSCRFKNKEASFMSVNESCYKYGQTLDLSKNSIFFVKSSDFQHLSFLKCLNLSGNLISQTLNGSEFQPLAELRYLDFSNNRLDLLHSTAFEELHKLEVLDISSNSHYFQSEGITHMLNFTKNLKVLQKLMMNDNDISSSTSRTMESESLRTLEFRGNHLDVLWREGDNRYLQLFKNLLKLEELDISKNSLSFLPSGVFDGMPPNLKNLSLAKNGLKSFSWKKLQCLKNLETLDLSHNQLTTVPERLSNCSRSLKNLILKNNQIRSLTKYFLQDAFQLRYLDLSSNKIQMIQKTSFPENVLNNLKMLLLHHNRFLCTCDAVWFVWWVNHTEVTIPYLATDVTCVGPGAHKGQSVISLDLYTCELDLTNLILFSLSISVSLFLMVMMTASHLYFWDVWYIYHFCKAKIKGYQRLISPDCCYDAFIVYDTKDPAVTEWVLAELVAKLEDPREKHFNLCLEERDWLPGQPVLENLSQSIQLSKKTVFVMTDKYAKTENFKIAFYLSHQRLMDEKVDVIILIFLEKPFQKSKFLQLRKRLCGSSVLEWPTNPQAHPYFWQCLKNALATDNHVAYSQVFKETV
Experiment: TLR7 inhibition reporter assay (HEK-Blue SEAP)
Format: cell-based
Conditions: HEK-Blue cells overexpressing human TLR7, gardiquimod 7.5 μM, 22 hour incubation
Summary of the method: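 In this cell reporter format, test compounds at 0.05 nM-50 μM final incubate 22 h with seeded cells (TLR7 15000, TLR8 20,000 per well). SEAP read-out by HEK-Blue Detection medium yields % inhibition relative to agonist/DMSO and known-inhibitor wells.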

Structure (SMILES)	IC50
COc1cc(-c2cc3[nH]c(=O)n([C@H]4CCCN(CC5CCOC5)C4)c3cc2C(C)C)cn2ncnc12 (stereo partly drawn) [Example 126, 6-isopropyl-5-(8-methoxy-[1,2,4]triazolo[1,5-a]pyridin-6-yl)-1-((3S)-1-((tetrahydrofuran-3-yl)methyl)piperidin-3-yl)-1,3-dihydro-2H-benzo[d]imidazol-2-one]	81.8 nM
COc1cc(-c2cc3[nH]c(=O)n(C4CCCN(C(=O)CN(C)C)C4)c3cc2C)cn2ncnc12 (stereo not drawn) [Example 105, 1-(1-(dimethylglycyl)piperidin-3-yl)-5-(8-methoxy-[1,2,4]triazolo[1,5-a]pyridin-6-yl)-6-methyl-1,3-dihydro-2H-benzo[d]imidazol-2-one]	399 nM
COc1cc(-c2cc3[nH]c(=O)n([C@@H]4CCCN(CC5CCC5)C4)c3cc2C(C)C)cn2ncnc12 [Example 140, (R)-1-(1-(cyclobutylmethyl)piperidin-3-yl)-6-isopropyl-5-(8-methoxy-[1,2,4]triazolo[1,5-a]pyridin-6-yl)-1,3-dihydro-2H-benzo[d]imidazol-2-one]	1.3 nM
COc1cc(-c2cc3[nH]c(=O)n([C@H]4CCCN(C)C4)c3cc2C(C)C)cn2ncnc12 [Example 119, (S)-6-isopropyl-5-(8-methoxy-[1,2,4]triazolo[1,5-a]pyridin-6-yl)-1-(1-methylpiperidin-3-yl)-1,3-dihydro-2H-benzo[d]imidazol-2-one]	31.8 nM
Cc1cc2c(cc1-c1cc(C)c3ncnn3c1)[nH]c(=O)n2[C@@H]1CCCN(CC(=O)N(C)C)C1 [Example 95, (R)—N,N-dimethyl-2-(3-(6-methyl-5-(8-methyl-[1,2,4]triazolo[1,5-a]pyridin-6-yl)-2-oxo-2,3-dihydro-1H-benzo[d]imidazol-1-yl)piperidin-1-yl)acetamide]	117 nM
COc1cc(-c2cc3[nH]c(=O)n([C@H]4CCCN(CC5CCOCC5)C4)c3cc2C(C)C)cn2ncnc12 [Example 125, (S)-6-isopropyl-5-(8-methoxy-[1,2,4]triazolo[1,5-a]pyridin-6-yl)-1-(1-((tetrahydro-2H-pyran-4-yl)methyl)piperidin-3-yl)-1,3-dihydro-2H-benzo[d]imidazol-2-one]	34.1 nM
COc1cc(-c2cc3[nH]c(=O)n([C@@H]4CCCN(C)C4)c3cc2C(C)C)cn2ncnc12 [Example 136, (R)-6-isopropyl-5-(8-methoxy-[1,2,4]triazolo[1,5-a]pyridin-6-yl)-1-(1-methylpiperidin-3-yl)-1,3-dihydro-2H-benzo[d]imidazol-2-one]	2.18 nM
COc1cc(-c2cc3[nH]c(=O)n(C4CCN(C5CCOC5)CC4)c3cc2C(C)C)cn2ncnc12 (stereo not drawn) [Example 162, 6-isopropyl-5-(8-methoxy-[1,2,4]triazolo[1,5-a]pyridin-6-yl)-1-(1-(tetrahydrofuran-3-yl)piperidin-4-yl)-1,3-dihydro-2H-benzo[d]imidazol-2-one]	73 nM
COc1cc(-c2cc3[nH]c(=O)n([C@H]4CCCN(C5COC5)C4)c3cc2C(C)C)cn2ncnc12 [Example 123, (S)-6-isopropyl-5-(8-methoxy-[1,2,4]triazolo[1,5-a]pyridin-6-yl)-1-(1-(oxetan-3-yl)piperidin-3-yl)-1,3-dihydro-2H-benzo[d]imidazol-2-one]	125 nM
COc1cc(-c2cc3[nH]c(=O)n([C@H]4CCCN(CC5CC5)C4)c3cc2C(C)C)cn2ncnc12 [Example 127, (S)-1-(1-(cyclopropylmethyl)piperidin-3-yl)-6-isopropyl-5-(8-methoxy-[1,2,4]triazolo[1,5-a]pyridin-6-yl)-1,3-dihydro-2H-benzo[d]imidazol-2-one]	14.3 nM
CCCN(CCC)[C@H]1CC[C@@H](n2c(=O)[nH]c3cc(-c4cc(OC)c5ncnn5c4)c(CC)cc32)CC1 [Example 168, 1-((1s,4s)-4-(dipropylamino)cyclohexyl)-6-ethyl-5-(8-methoxy-[1,2,4]triazolo[1,5-a]pyridin-6-yl)-1,3-dihydro-2H-benzo[d]imidazol-2-one]	5.45 nM
Cc1cc2c(cc1-c1cc(C)c3ncnn3c1)[nH]c(=O)n2C1CCN(C(=O)CN(C)C)CC1 [Example 101, 1-(1-(dimethylglycyl)piperidin-4-yl)-6-methyl-5-(8-methyl-[1,2,4]triazolo[1,5-a]pyridin-6-yl)-1,3-dihydro-2H-benzo[d]imidazol-2-one]	173 nM
